In US4066650A, “Keto-aldehyde-amine addition products and method of making same” (priority 1975, dated 1978):

System: skin graft
Assay: Skin graft rejection (orthotopic skin heterografts white to gray and gray to white)
Assay type: in vivo, Swiss albino mice and C3HStCrl mice
Settings: 3.744 mg/kg i.p. daily, cumulative; for rejection on 31-40 days: g to w line; for rejection on 26-30 days: w to g line
Source text: Skin grafting in mice is well established and this tissue is among the most sensitive indicators of histocompability differences. The retnetion of skin graft between genetically non-related mice is an excellent method of evaluating activity against rejection mechanism. p As the rejection of transplants is associated with antigen formation against the incompatible proteins of the donated tissue, a drug which specifically represses the protein synthesis without affecting the intermediary metabolism of the host is a potential candidate for combatting rejection.
The experiments described here were performed on random-bred Swiss albino mice (white, females, average body weight 26±3 g; Charles River CD-1-strain) and inbred C3HStCrl mice (cinnamon gray, females, average body weight 20±2 grams; Charles River pedigreed breeders from L. C. Strong Foundation) and othotopic skin transplants were made in both ways, that is, white to gray and gray to white.
Standard transplantation technique (R. E. Billingham, W. K. Silvers in Transplantation of tissues and cells, The Wistar Institute Press, Philadelphia, p. 8, 1961) was utilized: From nembutal anesthetized animals 4-6 "pinch"-grafts (full thickness, 3-4 mm in diameter) of the close clipped and sterilized skin were collected from the thorax and immediately transplanted. The grafts were positioned in the "beds" (in place of the pinch-graft) and were held in position by tulle gras (vaseline-impregnatedgauze) and by plaster-of-Paris impregnated bandage around the thorax.
The bandages were removed on the 6-9th day after the transplantation and the future development of the grafts was followed by macroscopical observations.
Positive and negative controls were made simultaneously for skin rejection:
a. Four positive control isografts (white to white, and gray to gray) were made. […] On the 21-28th day the fur-bearing skin had regenerated a completely new crop of hairs indistinguishable from the original population with respect to colors, density and orientation.
b. Four negative control heterografts (white to gray and gray to white) were made without treatment. […] On the 10-12th day after transplantation intravascular thrombies, capillary ruptures, extravasation of blood were the first signs that the grafts were heading for necrosis and rejection which occurred on the 18-25th day.
The heterografts with treatment followed three courses with methylglyoxal-maleimide (at dose level 3.744 mg/kg/animal/day) administered intraperitoneally in a total amount of 1.0 ml/animal/day.
i. Animals were treated for 10 days with the composition before grafts were exchanged and treatment was discontinued on the day of transplantation.
ii. Animals were not treated before the grafts were exchanged but the treatment started on the day of transplantation and continued for 10 days.
iii. Animals were treated for 10 days with the drug before the grafts were exchanged and the treatment schedule was continued for 25 days after the transplantation.

[1] = (ii) post graft treatment for 10 days
[2] = (iii) pretreatment for 10 days and post graft treatment for 25 days

`CC(=O)C(O)N1C(=O)C=CC1=O` (stereo not drawn) [Methylglyoxal-maleimide, N'-(2-keto-propane-1-ol)-2,5-dioxopyrroline-3-ene] was tested, and the “rejection on 31-40 days” value ((i) pretreatment for 10 days) was 100%, the “rejection on 26-30 days” value ((i) pretreatment for 10 days) was 30% and the “rejection on 31-40 days” value [1] was 60%. The “rejection on 26-30 days” value [1] was 10%, the “rejection on 31-40 days” value [2] was 10% and the “rejection on 26-30 days” value [2] was “No rejection”.
